In patent publication US12377111B2, “Composition, comprising thiamine derivative, for prevention or treatment of hypercortisolemia” (KYUNGPOOK NATIONAL UNIVERSITY INDUSTRY-ACADEMIC COOPERATION …, priority 2018, dated 2025):
Read-outs that look alike come from different tables or passages of the source.

Legend:
NCI-H295R cells = assay: Cortisol production in 8-Br-cAMP-stimulated NCI-H295R cells (ELISA); type: cell-based, human; conditions: for Cortisol production concentration: 0.5 mM 8-Br-cAMP, 12 h pretreatment + 24 h; for Cortisol production concentration / inhibition of cortisol production increased by 0.5 mM 8-Br-cAMP (in words): NCI-H295R; for reduction in cortisol production: compared with non-treatment group (with 8-Br-cAMP treatment); for inhibition of cortisol production increased by 0.5 mM 8-Br-cAMP (in words): 20, 50, 100 μM
Procedure: Cortisol secretion inhibitory effects by allithiamine (Shanghai iChemical Technology CO., LTD., China), fursultiamine (Toronto Research Chemicals, Canada), or benfotiamine (Sigma-Aldrich, St. Louis, MO, USA), which are thiamine (vitamin B1) based compounds, were tested. For this, cortisol reduction effects in adrenal tumors that excessively secret cortisol were measured.
NCI-H295R (ATCC #CRL-2128) cells, a human adrenocortical carcinoma cell line, were dispensed into 24-well plates at 2.5×10^5 cells/well. Then, the cells were incubated in DMEM/F12 growth media containing 2.5% Nu-serum, 1% ITS (insulin, transferrin, and selenium), bovine serum albumin (BSA), linoleic acid, and penicillin/streptomycin for 48 hours.
Thereafter, the media were exchanged with serum-free media, and then the NCI-H295R cells were pretreated with allithiamine, fursultiamine, or benfotiamine at concentrations of 20 μM, 50 μM, and 100 μM for 12 hours. The cells were treated with 8-bromoadenosine 3′,5′-cyclic monophosphate (8-Br-cAMP) at a concentration of 0.5 mM to increase cortisol synthesis, and again treated with allithiamine, fursultiamine, or benfotiamine at 20 μM, 50 μM, and 100 μM, followed by reaction for 24 hours. After the reaction, cell cultures were collected, and the amount of cortisol produced in the cells was measured using an enzyme-linked immunosorbent assay (ELISA) kit (Enzo Life Sciences, Inc., NY, USA).

CRH-overexpressed mice = system: CRH-overexpressed mice
Procedure: To investigate high-cortisol inhibitory effects, C57BL/6J normal mice (WT-con) aged 8 to 9 weeks and corticotropin-releasing hormone (CRH)-overexpressed mice, which are Cushing's syndrome animal models, were used. One group of CRH-overexpressed mice were orally administered with 60 mg/kg fursultiamine once a day for 9 weeks (CRH tg-Fur 60 mpk).
During this period, the body weight change was monitored by measuring body weights once a week. To check the concentration of corticosterone (in cases of rodents), blood was collected from the tail vein and serum was isolated. The concentration of corticosterone was measured from the isolated serum by using an enzyme-linked immunosorbent assay (ELISA) kit (Enzo Life Sciences, Inc., NY, USA). The fat mass was measured 6 weeks after administration of the drug by using a body composition analyzer (MiniSpec LF 50, Bruker Optics, Germany), and the fat distribution was again monitored with micro CT images 8 weeks after administration.

8-week-old male mice = conditions: for corticosterone concentration: serum, oral 24 h and 2 h before stress
Procedure: For the restraint stress test, 8-week-old male mice were used, and were orally administered with fursultiamine once 24 hours before and once 2 hours before stress induction. For induction of stress, the mice were individually placed head-first into well-ventilated 50 mL polypropylene tubes, which were then tied with a cap of the 50 mL tube, and the mice were confined for 2 hours. Before stress induction, 1 hour and 2 hours after induction, and at 1 hour of recovery, blood was collected from the tail vein and serum was isolated, and then the concentration of corticosterone was measured using ELISA kit.

C=CCSS/C(CCO)=C(/C)N(C=O)Cc1cnc(C)nc1N [allithiamine]
Cortisol production concentration (NCI-H295R cells; 20 μM compound): 10.5 ng/mL
Cortisol production concentration (NCI-H295R cells; 50 μM compound): 6.4 ng/mL
reduction in cortisol production (NCI-H295R cells; 50 μM): 50.7%
Cortisol production concentration (NCI-H295R cells; 100 μM compound): 2.8 ng/mL
reduction in cortisol production (NCI-H295R cells; 100 μM): 78.7%
inhibition of cortisol production increased by 0.5 mM 8-Br-cAMP (in words) (NCI-H295R cells): significantly inhibited the cortisol production

C/C(=C(\CCOP(=O)(O)O)SC(=O)c1ccccc1)N(C=O)Cc1cnc(C)nc1N [benfotiamine]
Cortisol production concentration (NCI-H295R cells; 20 μM compound): 14.0 ng/mL
Cortisol production concentration (NCI-H295R cells; 50 μM compound): 12.0 ng/mL
reduction in cortisol production (NCI-H295R cells; 50 μM): 22.6%
Cortisol production concentration (NCI-H295R cells; 100 μM compound): 8.6 ng/mL
reduction in cortisol production (NCI-H295R cells; 100 μM): 44.3%
inhibition of cortisol production increased by 0.5 mM 8-Br-cAMP (in words) (NCI-H295R cells): significantly inhibited the cortisol production

CC(=C(CCO)SSCC1CCCO1)N(C=O)Cc1cnc(C)nc1N (stereo in doubt) [fursultiamine]
Cortisol production concentration (NCI-H295R cells; 20 μM compound): 14.1 ng/mL
Cortisol production concentration (NCI-H295R cells; 50 μM compound): 9.0 ng/mL
reduction in cortisol production (NCI-H295R cells; 50 μM): 43%
Cortisol production concentration (NCI-H295R cells; 100 μM compound): 7.5 ng/mL
reduction in cortisol production (NCI-H295R cells; 100 μM): 52.4%
inhibition of cortisol production increased by 0.5 mM 8-Br-cAMP (in words) (NCI-H295R cells): significantly inhibited the cortisol production
corticosterone synthesis concentration (in words) (CRH-overexpressed mice; CRH-overexpressed mice, 60 mg/kg oral): smaller compared with the normal group
fat mass, Body weight (%) (CRH-overexpressed mice; CRH-overexpressed mice, 60 mg/kg oral once a day, 6 weeks after administration, body composition analyzer): 23.4%
increase in body weight (in words) (CRH-overexpressed mice; CRH-overexpressed mice, 60 mg/kg oral, 9 weeks, vs CRH-overexpressed control): smaller increase in body weight compared with the control
fat mass (in words) (CRH-overexpressed mice; CRH-overexpressed mice, 60 mg/kg oral, vs control): smaller compared with the control
Corticosterone (CRH-overexpressed mice; serum, CRH-overexpressed mice, 60 mg/kg oral once a day): 87.1 ng/mL
body weight (CRH-overexpressed mice; week 0, CRH-overexpressed mice, 60 mg/kg oral once a day): 18.4
body weight (CRH-overexpressed mice; week 1, CRH-overexpressed mice, 60 mg/kg oral once a day): 17.8
body weight (CRH-overexpressed mice; week 2, CRH-overexpressed mice, 60 mg/kg oral once a day): 17.8
body weight (CRH-overexpressed mice; week 3, CRH-overexpressed mice, 60 mg/kg oral once a day): 18.2
body weight (CRH-overexpressed mice; week 4, CRH-overexpressed mice, 60 mg/kg oral once a day): 18.1
body weight (CRH-overexpressed mice; week 5, CRH-overexpressed mice, 60 mg/kg oral once a day): 18.4
body weight (CRH-overexpressed mice; week 6, CRH-overexpressed mice, 60 mg/kg oral once a day): 17.9
body weight (CRH-overexpressed mice; week 7, CRH-overexpressed mice, 60 mg/kg oral once a day): 19.8
body weight (CRH-overexpressed mice; week 8, CRH-overexpressed mice, 60 mg/kg oral once a day): 19.7
body weight (CRH-overexpressed mice; week 9, CRH-overexpressed mice, 60 mg/kg oral once a day): 19.2
rate of increase in corticosterone level after stress induction (in words) (8-week-old male mice; restraint stress, oral administration): rate of increase in corticosterone level decreased
corticosterone concentration (8-week-old male mice; 0 min (before stress induction)): 63.6
corticosterone concentration (8-week-old male mice; 60 min (1 hour after stress induction)): 260.4
corticosterone concentration (8-week-old male mice; 120 min (2 hours after stress induction)): 261.4
corticosterone concentration (8-week-old male mice; 180 min (1 hour of recovery)): 105.8
